Assay results as given in patent US9504671B2, “Pharmaceutical compositions of spiro-oxindole compound for topical administration and their use as therapeutic agents” (Xenon Pharmaceuticals Inc., priority 2010, dated 2016).
Like-named read-outs stand apart in the source and are kept apart here.

Tests used:
[1] = test system: CFA-induced inflammatory pain model; assay: CFA induced chronic inflammatory pain, von Frey mechanical paw withdrawal threshold; format: in vivo, rats; settings: fourth day, 30 minutes post-dosing
Experimental: In this test, mechanical hyperalgesia is assessed with electronic von Frey filament by means of Electrovonfrey anesthesiometer (Model 2290, IITC Life Science, Woodland Hills, Calif.). Following a full week of acclimatization to the vivarium facility, 150 μL of the “Complete Freund's Adjuvant” (CFA) emulsion (CFA suspended in an oil/saline (1:1) emulsion at a final concentration of 0.5 mg/mL) was injected subcutaneously into the plantar surface of the left hind ankle joint of rats under light isoflurane anaesthesia. Animals were allowed to recover from the anaesthesia and the baseline mechanical nociceptive thresholds of all animals were assessed one week after the administration of CFA. All animals were habituated to the experimental chambers for 20 minutes on the day of the experiment. The animals were then randomly assigned to 5 different test groups including a vehicle control group and 4 pharmaceutical compositions with COMPOUND A at 1%, 2%, 4% and 8% (w/w) groups. After baseline measurements, animals were anaesthetized under isoflurane, shaved at the site of application, and then dosed by application of 50 mg test compositions on the entire ipsilateral hind ankle and foot. Animals were then placed in Plexiglas tubes for 30 minutes to prevent early removal/ingestion of drug. Test compositions were applied twice a day for 3 days. On the fourth day, immediately after application, animals were placed in tubes for 15 minutes and then removed and placed in Plexiglas enclosures for 15 minutes prior to making paw withdrawal measurements. Von Frey withdrawal thresholds were measured as the mean of several independent determinations made within 1-2 minutes of each other on the affected paw of each animal 30 minutes post-dosing. The time point used was previously determined to show the highest analgesic effect for each test composition.
The response thresholds of animals to tactile stimuli were measured using the Model 2290 Electrovonfrey anesthesiometer (IITC Life Science, Woodland Hills, Calif.). Animals were placed in an elevated Plexiglas enclosure set on a mire mesh surface. After 15 minutes of accommodation, a von Frey hair was applied perpendicularly to the plantar surface of the ipsilateral hind paws of the animals with sufficient force, measured in grams, to elicit a crisp response of the paw. The response indicated a withdrawal from the painful stimulus and constituted the efficacy endpoint.

[2] = solubility studies of COMPOUND A (UV spectrophotometry at 312 nm); format: physicochemical
Description: The spiro-oxindole compound of the invention, particularly, COMPOUND A, is relatively lipophilic and has poor water solubility.
Attempts to improve the solubility of COMPOUND A for use in a topical pharmaceutical composition, preferably as an ointment, were undertaken using a variety of solubilization techniques. The aim was to conduct a thorough investigation of the use of various pharmaceutically acceptable excipients to maximize the solubility of COMPOUND A. A series of solubility studies, which were performed using standard solubility testing techniques, was therefore carried out to identify proper excipient(s) and/or excipient combinations for achieving the target dosage strength for COMPOUND A. The solubility of COMPOUND A in these studies was determined by UV spectrophotometry using COMPOUND A's UV absorbance wavelength at 312 nm.

sodium channel = assay: guanidine influx assay disclosed in WO 06/110917; format: cell-based; settings: read-out: IC50, inhibition of ion flux through a sodium channel
Description: The IC50 (“Inhibitory Concentration—50%”) is a measure of the amount of compound required to achieve 50% inhibition of ion flux through a sodium channel, over a specific time period, in an assay of the invention.

animal models = assay: animal models, oral dosing (earlier studies); format: in vivo; settings: oral dose of 25 mg/Kg, previous studies
Description: For example, the mildly painful stimuli from scratching are effective in abolishing the itch sensation. In contrast, analgesics such as opioids can generate severe pruritis. The antagonistic interaction between pain and itch can be exploited in pruritis therapy, and current research concentrates on the identification of common targets for future analgesic and antipruritis therapy. […] Accordingly, COMPOUND A, as an enantiomer or a pharmaceutically acceptable salt thereof, can also be useful for treating pruritis.
Following paw withdrawal baseline measurements, animals were randomly divided into 4 different test groups (N=8 animals/group), including a vehicle control group for oral dosage, a vehicle control group for topical dosage, and two treatment groups. For the oral dosage groups, animals were dosed by oral gavages after baseline measurement. […] For the topical dosage groups, 50 mg of the test composition was applied on the ipsilateral ankle and foot. […] Von Frey withdrawal thresholds were measured as the mean of several independent determinations made within 1-2 minutes of each other on the affected paw of each animal. Withdrawal measurements were taken 60 minutes post dosing for the oral dosage group and 30 minutes post-dosing for the topical dosage group, representing their respective peak efficacy time points as determined in previous studies.

O=C1N(Cc2ccc(C(F)(F)F)o2)c2ccccc2[C@]12COc1cc3c(cc12)OCO3 [COMPOUND A, (S)-1′-{[5-(trifluoromethyl)furan-2-yl]methyl}spiro[furo[2,3-f][1,3]benzodioxole-7,3′-indol]-2′(1′H)-one]
von Frey mechanical paw withdrawal threshold, percent CFB ([1]; 1% (w/w) topical composition): did not demonstrate an observable increase | von Frey mechanical paw withdrawal threshold, percent CFB ([1]; 2% (w/w) topical composition): statistically significant increases | von Frey mechanical paw withdrawal threshold, percent CFB ([1]; 4% (w/w) topical composition): statistically significant increases | von Frey mechanical paw withdrawal threshold, percent change from baseline (CFB) ([1]; 8% (w/w) topical composition, 50 mg twice a day for 3 days): +45.1% | von Frey mechanical paw withdrawal threshold, percent CFB ([1]; 8% (w/w) topical composition): statistically significant increases | solubility ([2]; aqueous solution with pH adjusted to 2, aqueous buffer, pH 2, 7.4 and 12, read-out: solubility on varying the pH of a solution): < 5 µg/mL | solubility ([2]; water, read-out: water solubility): < 5 µg/mL | IC50 (sodium channel): < 1000 nM | reversal of pain response (animal models): approximately half-maximal reversal of pain response
